Results on four substances are retold here after patent US20040224358A1, “Method for discovering one or more peptides adapted for specific binding to a microorganism of interest” (priority 2002, published 2004).

In test [1] the test system is lipopolysaccharides from Salmonella. Put plainly: Dot blot binding of membrane-absorbed peptides to FITC-LPS from Salmonella. Particulars: 0-20 μg peptide on PVDF membrane, FIG. 1(b). As to the method: (§1) Varying amounts of each peptide (ranging from 0-20 μg in 5 μg increments) were absorbed at a flow rate of approximately 0.15 ml/min. The membrane was blocked with 3% gelatin in TBS for 30 minutes at room temperature with gentle agitation and then was washed three times with TBS. Isolated, fluorescently-labeled lipopolysaccharides (FITC-LPS) from E.coli and Salmonella (Sigma Chemical Co.) were diluted in TBS to a final concentration of […] and were then bound to the membrane at room temperature with gentle agitation. The membrane was then washed three times with TBS and imaged on a Storm 860 (Molecular Dynamics, Sunnyvale, Calif.) in blue fluorescence mode.

Test [2] has as its system lipopolysaccharides from E.coli. Put plainly: Dot blot binding of membrane-absorbed peptides to FITC-LPS from E.coli. Particulars: 0-20 μg peptide on PVDF membrane, FIG. 1(a). As to the method:
as §1

Another test has as its system E.coli 0157: H7 cells. Nature of the test: Whole-cell binding of E.coli to immobilized Cys-Cecropin P1 (HRP antibody/TMB, absorbance 650 nm). Particulars: immobilized peptide, E.coli 0157: H7 whole cells, FIG. 2. The arrangement: species or system E coli serotype 0157: H7 (non-pathogenic). As to the method:
The binding of cecropin P1 to whole E.colicells was tested as follows: Preparation of whole bacterial cells—E coli serotype 0157: H7 (non-pathogenic) cells from a frozen stock were grown overnight in Luria Broth Base (Life Technologies, Inc., Paisely, Scotland). The bacterial cells were collected by centrifugation at 9000×g for 5 min. The cell pellet was washed 2 times with PBS pH 7.2 and collected each time by centrifugation. The washed cell pellet was resuspended in PBS pH 7.2 to a final volume equivalent to the original culture volume. Optical density of the cell suspension was detected on a Beckmann DU840 spectrophotometer at an absorbance of 540 nm. An absorbance of 4.5 is approximately 3.5×10^9 cfu/ml.
Peptide immobilization—Cys-Cecropin P1 (a modified cecropin p1 prepared by solid phase peptide synthesis wherein cysteine is added to the C-terminus of cecropin p1) was diluted into PBS pH 6.5, 1 mM EDTA, 0.0001 mM DTT (Sigma Chemical Co., St. Louis, Mo.) for immobilization onto sulfhydryl-bind strip wells (Corning Inc., Corning, N.Y.). […]
Detection and color development—E.coli 0157: H7 cells (prepared as above) were added to each well containing immobilized cys-cecropin p1 (described as above). […] Absorbance was then measured on a Thermomax microplate reader (Molecular Devices, Sunnyvale, Calif.) at 650 nm.

Buforin I: the “binding to lipopolysaccharides from Salmonella” value (from here on “binding … from Salmonella”) in test [1] was “did not bind”. For the same substance, in test [2], the “binding to lipopolysaccharides from E. coli” value (from here on “binding … from E. coli”) is “did not bind”.
As to “Cecropin P1 (SWLSKTAKKLENSAKKRISEGIAIAIQGGPR; Cecropin-P1; UniProt P14661 14-44, looked up)”, the “saturation of whole-cell binding occurs at a concentration of” value in the test with E.coli 0157: H7 cells lay within 45 to 50 µg. For the same substance, the “binding … from Salmonella” value in test [1] is on record as “did bind”. Also, in test [2], the “binding … from E. coli” value is “did bind”.
As for Indolicidin, in test [1], the “binding … from Salmonella” value is recorded as “did bind”. In test [2], the “binding … from E. coli” value is recorded as “did bind”.
As for PGQ, in test [1], the “binding … from Salmonella” value was “did bind”. For the same substance, the “binding … from E. coli” value in test [2] is “did bind”.
